Like-named read-outs stand apart in the source and are kept apart here.
How the values were obtained:
[1] = Hemolytic activity on human erythrocytes (in vitro); format: cell-based; settings: both sexes; for hemolysis at 1 h, 1000 µg/mL: 0.5% red blood cell suspension, read-out: hemolysis rate
Source text: (§1) The in vitro and ex vivo assays followed the guidelines provided in the Ethics Code of the World Medical Association and were approved by the Ethics Committee of the Patos University Center (protocol number: 3.621.284). For cell pellet preparation, blood samples (A, B, and O), and buccal mucosa were used from healthy young adults of both sexes between 18 and 40 years of age.
For hemolytic activity, red blood cell (RBC) samples were mixed with 0.9% NaCl in a proportion of 1:30 and centrifuged for 5 min (1400 g, 28°C) to obtain a white blood cell and platelet-free 0.5% suspension. The tested substance (Pg-1) was added to 2 mL RBC suspensions at the concentrations of 50, 100, 500, and 1000 µg/mL. The control samples were divided into two groups: negative control - RBC suspension (0% hemolysis) and a positive control - RBC suspension with 1% Triton X-100 (100% hemolysis). The material was incubated for 1 h at 22±2°C. Afterwards, the samples were centrifuged for 5 min (1400 g, 28°C) and hemolysis was quantified by spectrophotometry at 540 nm wavelength ([6]).

oral mucosa cells = assay: Genotoxic effect on oral mucosa cells (ex vivo); format: cell-based, human
Source text: as §1
For evaluation of the genotoxic effect on oral mucosa cells, cell collection from the oral mucosa of the donors was performed with a cytobrush (smear brush collector) in the cheek area, and the material obtained was placed in 5 mL of 0.9% NaCl ([7]). Control samples were divided into two groups: cells treated with 0.0005% hydrogen peroxide (positive control) and cells not exposed to treatments (negative control). The cells were washed twice in saline solution and centrifuged for 10 min (900 g, 28°C). The cell pellets were re-suspended and kept in 5 mL of saline solution. After the third wash, they were exposed (ex vivo) to Pg-1 (50, 100, 500, and 1000 µg/mL) for 30 min; each test was performed in triplicate. The material was centrifuged for 5 min (900 g, 28°C) and the supernatant was removed before smear preparation. The cells were homogenized in a vortex and dried on the slides at room temperature for 15 min. Finally, they were fixed with a methanol:acetic acid mixture (3:1) for 15 min ([8]), and stained with 2% Giemsa. The cells were observed under an optical microscope and about 1000 cells were analyzed per slide. The data are reported as percentages representing the arithmetic average of three measurements ([9]). The cell toxicity was assessed by the presence of cellular indicators such as micronucleus, bi-nucleation, karyolysis, karyorrhexis, and macronucleus ([10]).

SMILES: COc1ccc(-c2oc3c(OC)c(O)cc(O)c3c(=O)c2OC)cc1 [Pg-1, 5,7-dihydroxy-3,8,4'-trimethoxy]
- hemolysis at 1 h ([1]; 0.5% red blood cell suspension (blood types A, B and O), all concentrations tested (50-1000 µg/mL), read-out: rate of hemolysis (class)): 0 to 40%
- hemolysis at 1 h, 1000 µg/mL ([1]; type A blood): < 5%
- hemolysis at 1 h, 1000 µg/mL ([1]; type B blood): < 17%
- hemolysis at 1 h, 1000 µg/mL ([1]; type O blood): < 9%
- Binucleation (%) (oral mucosa cells; 50 µg/mL, 30 min): 3.00±0.33 %
- Karyolysis (%) (oral mucosa cells; 50 µg/mL, 30 min): 2.88±0.11 %
- Karyorrhexis (%) (oral mucosa cells; 50 µg/mL, 30 min): 1.77±0.58 %
- Macronucleus (%) (oral mucosa cells; 50 µg/mL, 30 min): 6.55±0.58%
- Micronucleus (%) (oral mucosa cells; 50 µg/mL, 30 min): 0.55±0.11 %
- Normal (%) (oral mucosa cells; 50 µg/mL, 30 min): 85.22±0.72 %
- Binucleation (%) (oral mucosa cells; 100 µg/mL, 30 min): 1.77±0.58 %
- Karyolysis (%) (oral mucosa cells; 100 µg/mL, 30 min): 2.44±0.44 %
- Karyorrhexis (%) (oral mucosa cells; 100 µg/mL, 30 min): 7.33±0.19%
- Macronucleus (%) (oral mucosa cells; 100 µg/mL, 30 min): 3.55±0.94 %
- Micronucleus (%) (oral mucosa cells; 100 µg/mL, 30 min): 0.22±0.11 %
- Normal (%) (oral mucosa cells; 100 µg/mL, 30 min): 84.67±1.07 %
- Binucleation (%) (oral mucosa cells; 500 µg/mL, 30 min): 2.33±0.50 %
- Karyolysis (%) (oral mucosa cells; 500 µg/mL, 30 min): 2.55±0.80 %
- Karyorrhexis (%) (oral mucosa cells; 500 µg/mL, 30 min): 3.66±1.01 %
- Macronucleus (%) (oral mucosa cells; 500 µg/mL, 30 min): 5.33±0.33%
- Micronucleus (%) (oral mucosa cells; 500 µg/mL, 30 min): 0.22±0.11 %
- Normal (%) (oral mucosa cells; 500 µg/mL, 30 min): 85.89±1.78 %
- Binucleation (%) (oral mucosa cells; 1000 µg/mL, 30 min): 1.55±0.58 %
- Karyolysis (%) (oral mucosa cells; 1000 µg/mL, 30 min): 1.44±0.22 %
- Karyorrhexis (%) (oral mucosa cells; 1000 µg/mL, 30 min): 1.44±0.11 %
- Macronucleus (%) (oral mucosa cells; 1000 µg/mL, 30 min): 3.66±0.19 %
- Micronucleus (%) (oral mucosa cells; 1000 µg/mL, 30 min): 0.33±0.01 %
- Normal (%) (oral mucosa cells; 1000 µg/mL, 30 min): 91.56±0.44 %
- toxicity in genotoxicity testing (oral mucosa cells; all concentrations (50-1000 µg/mL)): low toxicity

SMILES: OO [Positive control, hydrogen peroxide, reference compound]
- Binucleation (%) (oral mucosa cells; 0.0005% hydrogen peroxide): 4.33±0.38%
- Karyolysis (%) (oral mucosa cells; 0.0005% hydrogen peroxide): 5.44±0.72%
- Karyorrhexis (%) (oral mucosa cells; 0.0005% hydrogen peroxide): 5.11±0.67%
- Macronucleus (%) (oral mucosa cells; 0.0005% hydrogen peroxide): 4.55±0.80%
- Micronucleus (%) (oral mucosa cells; 0.0005% hydrogen peroxide): 4.00±0.88%
- Normal (%) (oral mucosa cells; 0.0005% hydrogen peroxide): 76.56±3.08%
- Normal (%) (oral mucosa cells; 0.0005% hydrogen peroxide, listed as positive control): < 80%

Source: PMC8373196, “In silico, in vitro, and ex vivo studies of the toxicological and pharmacological properties of the flavonoid 5,7-dihydroxy-3,8,4'-trimethoxy” (Brazilian Journal of Medical and Biological Research, 2021)
